Experiments:
Assay type in all cases: cell-based
mouse TGR5 receptor [1] = target: T1, mouse TGR5 receptor (Mus musculus, UniProt Q80SS6); assay: Mouse TGR5 cAMP production assay (luminescent, DiscoveRx cAMP XS+); details: HEK293-EBNA cells overexpressing mouse TGR5, luminescent cAMP XS+; coded A-D; read-out: Mouse TGR5 Lum. cAMP Activity (EC50)
T1 construct: expressed in transfected cells; host or cells: HEK293-EBNA (293 c18, ATCC CRL10852), Hygromycin B selection
T1 sequence (Q80SS6 1-329): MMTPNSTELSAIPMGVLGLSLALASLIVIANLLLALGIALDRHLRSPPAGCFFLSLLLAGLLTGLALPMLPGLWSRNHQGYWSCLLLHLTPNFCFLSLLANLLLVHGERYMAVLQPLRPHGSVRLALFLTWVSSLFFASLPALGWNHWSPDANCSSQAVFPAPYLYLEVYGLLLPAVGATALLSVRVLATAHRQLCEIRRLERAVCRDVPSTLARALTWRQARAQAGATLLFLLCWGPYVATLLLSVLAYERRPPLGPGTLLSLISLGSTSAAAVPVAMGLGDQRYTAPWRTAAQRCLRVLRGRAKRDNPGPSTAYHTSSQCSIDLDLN
Source text: Mouse TGR5 cAMP Production Assay
We evaluated compounds of the present invention for their ability to induce cAMP production in HEK-EBNA cells overexpressing the mouse TGR5 receptor. Human embryonic kidney cells (HEK293-EBNA) stably expressing mouse TGR5 receptor were established using the following procedure. Specifically, a commercially-obtained gene encoding mouse TGR5 (accession number BC116914) from Thermo Scientific (Waltham, Mass.) was cloned into an episomal expression vector. The resulting expression plasmid was then transfected into 293 c18 (ATCC® CRL10852™) cells, which express the Epstein-Barr virus nuclear antigen EBNA1 and can support the replication of episomal vectors. Selection for the plasmid was maintained with Hygromycin B. Cells were cultured and maintained in DMEM (Sigma; cat #6429) supplemented with 10% Fetal Bovine Serum, 1% penicillin/streptomycin, 2 mM L-alanine L-glutamine (GlutaMax), and 250 μg/mL Hygromycin.
Two cAMP production assays were developed.
1. Luminescent cAMP Production Assay
In this first cAMP production assay, the cAMP production was measured using DiscoveRx's cAMP XS+ kit following the manufacturer's recommended protocol.
Briefly, HEK293-EBNA cells stably overexpressing mouse TGR5 were harvested using non-enzymatic cell dissociation buffer (Sigma-Aldrich, St. Louis, Mo.), spun down, then resuspended in serum-free DMEM with 500 μM IBMX at a density of 1.25×10^6 cells/mL. 500 μL of cAMP antibody solution was added to […] of cell suspension and incubated at room temperature for 20 min.
Test compounds were serially diluted (half-log dilutions) in DMSO and then further diluted 1:50 in PBS, 10 mM HEPES buffer. 2 μL of serially diluted compound was added to a 384-well low volume plate (Greiner cat #784075) and centrifuged briefly. 2 μL of the cell/cAMP antibody mixture was then added to each compound-containing well and allowed to incubate at room temperature for one (1) hour. Following incubation, the XS+ kits' ED/Lysis/CL Substrate Working Solution was prepared following the manufacturer's recommended protocol and 4 μL was added to each well of the plate. The plate was then incubated for one (1) hour at room temperature. Following incubation, 4 μL of (Enzyme Acceptor) EA reagent was added to the plate and allowed to incubate overnight at room temperature. Luminescent signal was then detected using the Viewlux instrument (Perkin-Elmer, Waltham, Mass.).
In Table 33, EC50 values for both human and mouse cells were determined according to the TGR5 cAMP assays described above.

human TGR5 receptor = target: T2, human TGR5 receptor (Homo sapiens, UniProt Q8TDU6); assay: Human TGR5 cAMP production assay; details: human TGR5, luminescent cAMP assay; coded A-D; read-out: Human TGR5 Lum. cAMP Activity (EC50)
T2 construct: host or cells: CHO-K1 (hTGR5-CHO cells)
T2 sequence (Q8TDU6 1-330): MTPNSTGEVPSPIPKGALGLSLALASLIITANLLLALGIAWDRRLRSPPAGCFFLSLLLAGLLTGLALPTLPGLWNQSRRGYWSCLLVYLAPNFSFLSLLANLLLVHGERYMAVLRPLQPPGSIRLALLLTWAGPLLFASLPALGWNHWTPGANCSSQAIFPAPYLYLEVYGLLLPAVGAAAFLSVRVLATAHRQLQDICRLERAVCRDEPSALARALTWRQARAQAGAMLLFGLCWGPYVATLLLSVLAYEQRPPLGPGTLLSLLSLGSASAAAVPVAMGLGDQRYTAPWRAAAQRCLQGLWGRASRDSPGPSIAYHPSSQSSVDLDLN
Method in brief: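 Intracellular cAMP read by luminescent enzyme-complementation (XS+) after overnight development, following 1 h room-temperature compound treatment of hTGR5-CHO-K1 cells in IBMX plus anti-cAMP antibody. Compounds tested as half-log dilution series; EC50 derived.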

mouse TGR5 receptor [2] = target: T1, mouse TGR5 receptor; assay: Mouse TGR5 cAMP production assay (HTRF, Cisbio cAMP HiRange); details: HEK293-EBNA cells overexpressing mouse TGR5, HTRF cAMP HiRange; coded A-D
Method in brief: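 cAMP read by HTRF competition after 1 h room-temperature compound exposure of mouse TGR5-overexpressing HEK293-EBNA cells. Cells were suspended in serum-free DMEM containing 500 μM IBMX; compounds ran as 12-point half-log dilutions in duplicate; EC50 derived.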

SMILES | EC50 (mouse TGR5 receptor [1]) | EC50 (human TGR5 receptor) | EC50 (mouse TGR5 receptor [2])
Cc1noc(C)c1-c1cccc(CNS(=O)(=O)c2cc(F)cc(C(F)(F)F)c2)c1 [Compound 2AG] | > 30000 nM | 1000 to 30000 nM | –
Cc1noc(C)c1-c1cccc(CNS(=O)(=O)c2ccc(Cl)c(C(F)(F)F)c2)c1 [Compound 2AD] | > 30000 nM | 1000 to 30000 nM | –
O=S(=O)(NCc1cccc(-c2ccncc2C(F)(F)F)c1)c1cccc(C(F)(F)F)c1 [Compound 1BH] | 1000 to 30000 nM | 1000 to 30000 nM | –
Cc1noc(C)c1-c1cccc(CNS(=O)(=O)c2cc(C(F)(F)F)cc(C(F)(F)F)c2)c1 [Compound 2AH] | > 30000 nM | 1000 to 30000 nM | –
COc1cnccc1-c1cccc(CNS(=O)(=O)c2cccc(C(F)(F)F)c2)n1 [Compound 1BQ] | 1000 to 30000 nM | 1000 to 30000 nM | –
O=S(=O)(NCc1ccc(Cl)c(-c2ccncc2)c1)c1cccc(C(F)(F)F)c1 [Compound 1BU] | > 30000 nM | 1000 to 30000 nM | –
COCCOc1cnccc1-c1cccc(C(C)(C)NS(=O)(=O)c2cccc(C(F)(F)F)c2)c1 [Compound 8, N-(2-(3-(3-(2-methoxyethoxy)pyridin-4-yl)phenyl)propan-2-yl)-3-(trifluoromethyl)benzenesulfonamide] | 1000 to 30000 nM | 100 to 999 nM | –
Cc1cncc(C)c1-c1cccc(C(C)(C)NS(=O)(=O)c2cccc(C(F)(F)F)c2)c1 [Compound 5AD, N-(2-(3-(3,5-dimethylpyridin-4-yl)phenyl)propan-2-yl)-3-(trifluoromethyl)benzenesulfonamide] | 1000 to 30000 nM | 1000 to 30000 nM | –
CC(C)Oc1cnccc1-c1cccc(C(C)(C)NS(=O)(=O)c2cccc(C(F)(F)F)c2)c1 [Compound 8AA, N-(2-(3-(3-isopropoxypyridin-4-yl)phenyl)propan-2-yl)-3-(trifluoromethyl)benzenesulfonamide] | 100 to 999 nM | 100 to 999 nM | –
CCC(NS(=O)(=O)c1cccc(C(F)(F)F)c1)c1cccc(-c2ccncc2C)c1 (racemic) [Compound 5AU, (+/−)N-(1-(3-(3-methylpyridin-4-yl)phenyl)propyl)-3-(trifluoromethyl)benzenesulfonamide] | 100 to 999 nM | 100 to 999 nM | –
C[C@H](NS(=O)(=O)c1cccc(C(F)(F)F)c1)c1cccc(-c2ccncc2)c1 [Compound 1AW] | 1000 to 30000 nM | 100 to 999 nM | –
O=S(=O)(NCc1cccc(-c2ccncn2)c1)c1cccc(C(F)(F)F)c1 [Compound 1BK] | > 30000 nM | 1000 to 30000 nM | –
O=S(=O)(NCc1cccc(-c2ccncc2)c1)c1cccc(Cl)c1 [Compound 2AJ] | 1000 to 30000 nM | 1000 to 30000 nM | –
C[C@@H](NS(=O)(=O)c1cccc(C(F)(F)F)c1)c1cccc(-c2ccncc2)c1 [Compound 1BB] | 1000 to 30000 nM | 100 to 999 nM | –
Cc1noc(C)c1-c1cccc(CNS(=O)(=O)c2ccc(C(F)(F)F)cc2)c1 [Compound 1AA] | > 30000 nM | 1000 to 30000 nM | –
C[C@H](NS(=O)(=O)c1ccccc1[N+](=O)[O-])c1cccc(-c2ccncc2Cl)c1 [Compound 2BS] | 100 to 999 nM | 100 to 999 nM | –
Cc1cnccc1-c1cccc(C(C)N(CCCNc2c(NCCC(=O)O)c(=O)c2=O)S(=O)(=O)c2cccc(Cl)c2C)c1 (centres unmarked) [Compound 32AB] | – | 100 to 999 nM | 100 to 999 nM
Cc1cnccc1-c1cccc(C(C)N(CCNc2c(NCS(=O)(=O)O)c(=O)c2=O)S(=O)(=O)c2cccc(Cl)c2C)c1 (centres unmarked) [Compound 32, 2-((2-((2-(3-chloro-2-methyl-N-(1-(3-(3-methylpyridin-4-yl)phenyl)ethyl)phenylsulfonamido)ethyl)amino)-3,4-dioxocyclobut-1-en-1-yl)amino)methanesulfonic acid] | – | 1000 to 30000 nM | 1000 to 30000 nM

The remaining lines, values ahead:

EC50 (mouse TGR5 receptor [1]) | EC50 (human TGR5 receptor) | EC50 (mouse TGR5 receptor [2]) | SMILES
100 to 999 nM | 100 to 999 nM | – | C[C@@H](NS(=O)(=O)c1cccc(C(F)(F)F)c1)c1cccc(-c2ccncc2Cl)c1 [Compound 1BC]
1000 to 30000 nM | 100 to 999 nM | – | O=S(=O)(NCc1cccc(-c2ccncc2Cl)c1)c1cccc(C(F)(F)F)c1 [Compound 1AQ]
> 30000 nM | 100 to 999 nM | – | O=S(=O)(NCc1cccc(-c2ccncc2)c1)c1cccc(Br)c1 [Compound 2AQ]
100 to 999 nM | 100 to 999 nM | – | COc1cnccc1-c1cccc(C(C)(C)NS(=O)(=O)c2cccc(C)c2)c1 [Compound 2AZ]
100 to 999 nM | 100 to 999 nM | – | CC(C)(NS(=O)(=O)c1cccc(C(F)(F)F)c1)c1cccc(-c2ccncc2Cl)c1 [Compound 1AF]
1000 to 30000 nM | 100 to 999 nM | – | CCC(NS(=O)(=O)c1cccc(C(F)(F)F)c1)c1cccc(-c2ccncc2)c1 (centres unmarked) [Compound 1BZ]
1000 to 30000 nM | 100 to 999 nM | – | CC(C)(NS(=O)(=O)c1cccc(C(F)(F)F)c1)c1cccc(-c2ccnc(N)c2)c1 [Compound 1AL]
100 to 999 nM | < 100 nM | – | Cc1cnccc1-c1cccc(C(C)(C)NS(=O)(=O)c2ccccc2C(F)(F)F)c1 [Compound 5AI, N-(2-(3-(3-methylpyridin-4-yl)phenyl)propan-2-yl)-2-(trifluoromethyl)benzenesulfonamide]
1000 to 30000 nM | < 100 nM | – | CC(C)(NS(=O)(=O)c1cccc(C(F)(F)F)c1)c1cccc(-c2ccncc2)c1 [Compound 1AD]
100 to 999 nM | < 100 nM | – | COc1cnccc1-c1cccc([C@H](C)NS(=O)(=O)c2ccccc2[N+](=O)[O-])c1 [Compound 2BP]
100 to 999 nM | < 100 nM | – | CCc1cnccc1-c1cccc(C(C)(C)NS(=O)(=O)c2cccc(C(F)(F)F)c2)c1 [Compound 5AB, N-(2-(3-(3-ethylpyridin-4-yl)phenyl)propan-2-yl)-3-(trifluoromethyl)benzenesulfonamide]
1000 to 30000 nM | 100 to 999 nM | – | O=S(=O)(NCc1cccc(-c2ccncc2)c1)c1cccc(C(F)(F)F)c1 [Compound 1AR]
1000 to 30000 nM | 100 to 999 nM | – | C[C@H](NS(=O)(=O)c1cccc(C(F)(F)F)c1)c1cccc(-c2ccncc2F)c1 [Compound 1AY]
100 to 999 nM | < 100 nM | – | Cc1cnccc1-c1cccc([C@H](C)NS(=O)(=O)c2cccc(C(F)(F)F)c2)c1 [Compound 5AG, (S)-N-(1-(3-(3-methylpyridin-4-yl)phenyl)ethyl)-3-(trifluoromethyl)benzenesulfonamide]
1000 to 30000 nM | < 100 nM | – | COc1cnccc1-c1cccc([C@H](C)NS(=O)(=O)c2cccc(C(F)(F)F)c2)c1 [Compound 1AZ]
100 to 999 nM | < 100 nM | – | Cc1cnccc1-c1cccc([C@@H](C)NS(=O)(=O)c2cccc(C(F)(F)F)c2)c1 [Compound 5AH, (R)-N-(1-(3-(3-methylpyridin-4-yl)phenyl)ethyl)-3-(trifluoromethyl)benzenesulfonamide]

From patent US11236055B2 (Venenum Biodesign, LLC, priority 2016, dated 2022)
